# Assay results reported in US20160271209A1, “ANTIBACTERIAL COMPOSITION” (ECO FRIENDLY INSTITUTE LIMITED., priority 2012, published 2016).
# Legend:
# [1] = tested on: Escherichia coli NBRC 3301 strain; test: Antibacterial activity against Escherichia coli (1): contact for days, colony count; type: cell-based; settings: Table 2, nisin 10 μg/mL
# Procedure: The Escherichia coli NBRC 3301 strain, which is a Gram-negative bacterium, was cultured to the logarithmic phase in Tryptic Soy Broth (TSB). The culture medium was diluted with sterilized purified water to adjust the number of bacteria (10^3 to 10^4 CFU/mL). Test solutions were prepared by dilution with sterilized purified water so as to contain nisin (10 μg/mL), the 5-fold concentrate of Prunus mume extract (3 mg/mL, 15 mg/mL as the extract before concentration), or nisin (10 μg/mL)+5-fold concentrate of Prunus mume extract (3 mg/mL, 15 mg/mL as the extract before concentration). The diluted culture medium (10 μL) was added to each test solution (1 mL). After contact of the bacterium with the test solution at room temperature for a predetermined number of days (0 to 7 days), the mixture (100 μL) was plated on TBS agar medium. The bacterium was cultured for 48 hours, and then the number of the colonies formed on the plate was counted. The results are shown in Tables 2 and 3 mentioned below and FIGS. 3 and 4. In Tables 2 and 3, “D+n” means the number of days (n days) for the contact of the diluted culture medium and the test solution (the same shall apply to the following descriptions).
# [2] = tested on: Gram-positive bacteria including acetic acid bacteria; settings: background statement; cited from earlier work
# [3] = tested on: Porphyromonas gingivalis W83 strain; test: Antibacterial activity against Porphyromonas gingivalis (2): growth inhibition effect by turbidity at 600 nm; type: cell-based; settings: FIG. 2, 48 hours culture
# Procedure: The Porphyromonas gingivalis W83 strain, a causative bacterium of periodontal disease, was cultured to the logarithmic phase in the brain heart infusion medium containing hemin (5 mg/L) and metidione (1 mg/L). The culture medium was diluted with a citrate buffer containing 0.8% NaCl to adjust the number of bacteria (10^6 CFU/mL). Test solutions were prepared by dilution with sterilized purified water so as to contain the 5-fold concentrate of Prunus mume extract (10 mg/mL, 50 mg/mL as the extract before concentration), nisin (20 μg/mL), or the 5-fold concentrate of Prunus mume extract (10 mg/mL, 50 mg/mL as the extract before concentration)+nisin ([…]), and serially diluted 2-fold on a 96-well plate. To each well (containing 50 μL of test solution), the brain heart infusion medium (140 μL) containing hemin (5 mg/L) and metidione (1 mg/L) and the cell suspension (10 μL) were added. After culture for 48 hours, turbidity of the culture was measured at 600 nm. For evaluation, growth inhibition effect (%) was calculated according to the equation: Growth inhibition effect (%)=(1−(Turbidity observed with test solution)/(Turbidity observed with sterilized water))×100.
# [4] = tested on: Porphyromonas gingivalis ATCC 33277 strain; test: Antibacterial activity against Porphyromonas gingivalis (1): 1 minute contact, colony count; type: cell-based
# Procedure: The Porphyromonas gingivalis ATCC 33277 strain, a causative bacterium of periodontal disease, was cultured to the logarithmic phase in Enriched Tryptic Soy Broth (e-TSB). The culture medium was diluted with a citrate buffer (pH 4.5) containing 0.8% NaCl to adjust the number of bacteria (10^6 CFU/mL). Test solutions were prepared by dilution with sterilized purified water so as to contain the 5-fold concentrate of Prunus mume extract (3 mg/mL, 15 mg/mL as the extract before concentration), nisin (150 μg/mL), or nisin (150 μg/mL)+5-fold concentrate of Prunus mume extract (3 mg/mL, 15 mg/mL as the extract before concentration). The diluted culture medium (100 μL) was added to each test solution (5 mL). After contact of the bacterium with the test solution for 1 minute at room temperature, the mixture (100 μL) was added to and mixed with the e-TSB medium (5 mL), and the mixture (100 μL) was immediately plated on a blood agar medium under an anaerobic condition. The bacterium was cultured for 5 days under an anaerobic condition, and then the number of the colonies formed on the plate was counted. The results were as shown in Table 1 mentioned below and FIG. 1. In Table 1, “CFU” means colony-forming unit (the same shall apply to the following descriptions).
substance,measurement,setting,value
nisin A,"Number of bacteria, D + 0",[1]; 0 days contact,"4,540 CFU/mL"
same,"Number of bacteria, D + 1",[1]; 1 day contact,"1,740 CFU/mL"
same,"Number of bacteria, D + 3",[1]; 3 days contact,"1,430 CFU/mL"
same,"Number of bacteria, D + 7",[1]; 7 days contact,290 CFU/mL
same,concentration showing growth-suppressing effect,[2],about 1 ppb
same,growth inhibition effect (in words),"[3]; 2-fold serial dilution, overall",extremely low
same,growth inhibition effect (in words),[3]; at the 1/32 concentration (32-fold dilution),did not show any growth inhibition effect at all
same,antibacterial activity against Porphyromonas gingivalis (in words),"[4]; Example 1, Table 1 and FIG. 1",did not show any antibacterial activity at all
same,"Number of bacteria, After contact","[4]; after contact for 1 minute at room temperature, nisin 150 μg/mL, Prunus mume extract 3 mg/mL (5-fold concentrate)",1.0 × 10^6 CFU/mL
same,"Number of bacteria, Before contact","[4]; before contact, nisin 150 μg/mL, Prunus mume extract 3 mg/mL (5-fold concentrate)",1.0 × 10^6 CFU/mL
